Measurements taken from patent EP0145177A2, “Chemotherapeutic agents based on rhizoxin” (priority 1983, dated 1985).

Key:
rice seedling = experiment: Induction of the characteristic symptoms of rice seedling blight; assay type: in vivo; conditions: Oryza sativa; extremely low concentration at which the action is still seen; read-out: concentration that can induce the characteristic symptoms of rice seedling blight
Procedure: (§1) Rhizoxin has an action which can induce the characteristic symptoms of rice seedling blight, even at an extremely low concentration (10 ng/ml).

plants other than rice = experiment: Growth of the root of plants other than rice; conditions: in vivo
Procedure: as §1

leukemia P-388 cells = experiment: Antitumor activity against Vincristine sensitive leukemia P-388 in mice (Test Example 4); assay type: in vivo, CDF1 mice; conditions: for ILS (%): P-388
Excerpt: (§2) Vincristine resistant or sensitive leukemia P-388 cells (1 x 10^6 cells) were intraperitoneally inoculated into CDF1 mice. Intraperitoneal administration of Rhizoxin and Vincristine was made on 1, 6 and 9 days after the tumor inoculation. The result is shown in Table 4 in terms of a percentage of an increase in the average life span of the treated mice over that of the control mice.

Leukemia L-1210 cells = experiment: Antitumor activity against leukemia L-1210 in mice (Test Example 2); assay type: in vivo, CDF1 mice; conditions: daily for 4 days; for ILS (%): increase in life span over control
Procedure: Leukemia L-1210 cells (1 x 10^5 cells) were intraperitoneally inoculated into CDF1 mice. Intraperitoneal administration of Rhizoxin was started 24 hours after the tumor inoculation and continued daily for 4 days. The result is shown in Table 2 in terms of a percentage of an increase in the life span of the treated mice over that of the control mice (ILS).

B-16 melanoma = experiment: Tumor growth inhibition of B-16 melanoma in mice (Test Example 3); assay type: in vivo, BDF1 mice; conditions: daily for 4 days, based on tumor weight from tumor diameter
Procedure: Tumor fragments of B-16 melanoma were subcutaneously inoculated into BDF1 mice. Intraperitoneal administration of Rhizoxin was begun 24 hours after the tumor inoculation and continued daily for 4 days.
The-result is shown in Table 3 in terms of a percentage of tumor growth inhibition based on the tumor weight which can be obtained from the measurement of the tumor diameter.

[1] = system: ascites tumor MH-134 cells due to the cancer of the liver; experiment: Antitumor activity against ascites tumor MH-134 in mice (Test Example 1); assay type: in vivo, C3H/He mice; conditions: for Average life span: once a day for 10 days from 24 hours after inoculation, control 17.2 days; for T/C (%): once a day for 10 days, ratio of average life span, treated/control x 100
Procedure: 1 x 10^6 of ascites tumor MH-134 cells due to the cancer of the liver were intraperitoneally inoculated into C3H/He mice (8 weeks old, each group 6 mice). Rhizoxin was dissolved with the addition of a small quantity of ethyl alcohol (not more than 1 volume percent on the basis of the total volume of the final solution), and further dissolved in a 0.85 X aqueous physiological sodium chloride solution containing 0.05 % of Tween 20. This solution was aseptically filtered, and 24 hours after the tumor inoculation, the solution was intraperitoneally administered to the mice continually for 10 days at a rate of 0.2 ml/mouse once a day. The antitumor activity of Rhizoxin was evaluated on the basis of the ratio (T/C) x 100 wherein T is the average life span of the Rhizoxin administered groups and C is the average life span of the control group.

[2] = system: plant pathogenic bacteria; experiment: Multiplication of plant pathogenic bacteria; assay type: cell-based; conditions: bacteria that are prokaryotes
Procedure: as §1

[3] = system: Vincristine resistant leukemia P-388 cells (P-388/VCR); experiment: Antitumor activity against Vincristine resistant leukemia P-388 in mice (Test Example 4); assay type: in vivo, CDF1 mice; conditions: for ILS (%): P-388/VCR; for effectiveness against Vincristine resistant leukemia P-388: summary in words of Table 4
Excerpt: as §2

Solubility in solvents = assay type: physicochemical
plant pathogenic fungi = experiment: Growth of plant pathogenic fungi; assay type: cell-based
Procedure: as §1

[4] = Toxicity by intraperitoneal injection into mice; conditions: mouse, in vivo, ip, C3H/He mice, read-out: LDS 0 value
Procedure: The toxicity of Rhizoxin was examined by the intraperitoneal injection of said compound into C3H/He mice, and as the LDS 0 value was above 5 mg/kg, it may be mentioned that the value is far above the dosage usually given in treatment.

[5] = 0.75 mg/Kg/day intraperitoneally on 1, 6 and 9 days after inoculation
[6] = 1.0 mg/Kg/day intraperitoneally on 1, 6 and 9 days after inoculation
[7] = 1.5 mg/Kg/day intraperitoneally on 1, 6 and 9 days after inoculation
[8] = 0.25 mg/Kg/day intraperitoneally
[9] = 0.5 mg/Kg/day intraperitoneally
[10] = 1.0 mg/Kg/day intraperitoneally
[11] = 15 mcg/Kg/day intraperitoneally
[12] = 150 mcg/Kg/day intraperitoneally
[13] = 2.0 mg/Kg/day intraperitoneally on 1, 6 and 9 days after inoculation

CO[C@@H](/C(C)=C/C=C/C(C)=C/c1coc(C)n1)[C@@H](C)[C@@H]1C[C@H](O)[C@@]2(C)O[C@@H]2/C=C/[C@@H](C)[C@H]2C[C@H](CC(=O)O2)C[C@@H]2O[C@H]2C(=O)O1 [Rhizoxin]
minimal effective concentration (rice seedling): 0.01 µg/mL
action on the growth of the root of the plants other than rice (plants other than rice): check the growth of the root
ILS (%) (leukemia P-388 cells; 0.5 mg/Kg/day intraperitoneally on 1, 6 and 9 days after inoculation): 46.2%
ILS (%) (leukemia P-388 cells; [5]): 65.6%
ILS (%) (leukemia P-388 cells; [6]): 82.9%
ILS (%) (leukemia P-388 cells; [7]): 123.7%
ILS (%) (leukemia P-388 cells; 3.0 mg/Kg/day intraperitoneally on 1, 6 and 9 days after inoculation): toxic
effectiveness against leukemia P-388 (leukemia P-388 cells; summary in words of Table 4): effective
Change in body weight (g) (day 1-7) (Leukemia L-1210 cells; [8]): +0.4 g
ILS (%) (Leukemia L-1210 cells; [8]): 43%
Change in body weight (g) (day 1-7) (Leukemia L-1210 cells; [9]): -0.7 g
ILS (%) (Leukemia L-1210 cells; [9]): 67%
Change in body weight (g) (day 1-7) (Leukemia L-1210 cells; [10]): -2.9 g
ILS (%) (Leukemia L-1210 cells; [10]): 81%
ILS (%) (Leukemia L-1210 cells; 2.0 mg/Kg/day intraperitoneally): toxic
Tumor growth inhibition (%) (B-16 melanoma; [8]): 38%
Tumor growth inhibition (%) (B-16 melanoma; [9]): 68%
Tumor growth inhibition (%) (B-16 melanoma; [10]): 62%
Average life span [1, 11]: 31.8 days
T/C (%) [1, 11]: 185%
Average life span [1, 12]: 47.8 days
T/C (%) [1, 12]: 278%
action on the multiplication of the plant pathogenic bacteria [2]: no recognizable action
ILS (%) [3, 5]: 28.2%
ILS (%) [3, 6]: 35.9%
ILS (%) [3, 7]: 57.3%
ILS (%) [3, 13]: 61.2%
ILS (%) ([3]; 4.0 mg/Kg/day intraperitoneally on 1, 6 and 9 days after inoculation): toxic
effectiveness against Vincristine resistant leukemia P-388 [3]: clearly effective
Solubility in solvents (Solubility in solvents; benzene, chloroform, acetone, alcohol, etc.): Easily soluble
Solubility in solvents (Solubility in solvents; water, n-hexane): sparingly soluble
action on the growth of plant pathogenic fungi (plant pathogenic fungi): inhibits the growth
LD50 [4]: > 5 mg/kg

CC[C@]1(O)C[C@H]2CN(CCc3c([nH]c4ccccc34)[C@@](C(=O)OC)(c3cc4c(cc3OC)N(C=O)[C@H]3[C@@](O)(C(=O)OC)[C@H](OC(C)=O)[C@]5(CC)C=CCN6CC[C@]43[C@@H]65)C2)C1 [Vincristine, reference compound]
ILS (%) [3, 6]: 6.8%
ILS (%) [3, 13]: toxic
effectiveness against Vincristine resistant leukemia P-388 [3]: not affected
